{"source": "patent US10590126B2", "about": "“Non-selective protease activated receptor 4 ALA120THR isoform antagonist” (THOMAS JEFFERSON UNIVERSITY, priority 2015, dated 2020)", "key": {"[1]": {"test_system": "PAR4 Ala120 and Thr120 variants", "assay": "PAR4-induced platelet activation, platelets of subjects of the 3 genotypes (FIG. 1)", "assay_type": "cell-based, human", "conditions": "subjects with and without the Thr120 variant (Ala/Ala, Ala/Thr, Thr/Thr)", "protocol": "FIG. 1. Summary of results using all three PAR4 variants. […] Data are shown as the average of the percent of maximal activation, where maximal activation was the DMSO data.\n[…] of mouse or PAC1 was added to each sample of platelets that contained compounds. 5 mL of compound was added to inhibitor samples. Tyrodes with 1% final concentration, DMSO were added to inhibitor samples with no controls. Each sample was incubated for two minutes. 5.5 mL of PAR4-AP was added to all samples except the no agonist control. Final concentrations of samples=[…]. Samples were gently mixed and sat at room temperature for 10 minutes. 50 mL of 2% paraformaldehyde was added to each sample and sat at room temperature for 10 minutes. 500 mL of Tyrodes were then added and samples were run of the C6 Accuri."}, "[2]": {"test_system": "platelets expressing PAR4 Ala120", "conditions": "individuals expressing PAR4 Ala120; cited from earlier work"}, "[3]": {"test_system": "platelets expressing PAR4 Thr120", "conditions": "individuals expressing PAR4 Thr120; cited from earlier work"}}, "note": "Entries after “also recorded” stand apart in the source; their conditions may differ.", "data": [{"smiles": "Cn1c(CO)c(-c2ccccc2)c2cc([N+](=O)[O-])ccc21", "note": "[VU0099704-4]", "values": [{"measurement": "blockade of PAR4-induced platelet activation", "setting": "[1]", "result": "effectively blocked; also recorded: greatest effective blockade"}]}, {"smiles": "CCCNCc1c(-c2ccccc2)c2cc([N+](=O)[O-])ccc2n1C", "note": "[VU0478046-1]", "values": [{"measurement": "blockade of PAR4-induced platelet activation", "setting": "[1]", "result": "effectively blocked"}, {"measurement": "blockade of PAR4-induced platelet activation", "setting": "[1]; listed as VU478046-1", "result": "greatest effective blockade"}]}, {"smiles": "CNCc1c(-c2ccccc2)c2cc([N+](=O)[O-])ccc2n1C", "note": "[VU0478944-1]", "values": [{"measurement": "blockade of PAR4-induced platelet activation", "setting": "[1]", "result": "effectively blocked; also recorded: greatest effective blockade"}]}, {"smiles": "COC(=O)[C@H](c1ccccc1Cl)N1CCc2sccc2C1", "note": "[clopidogrel]", "values": [{"measurement": "inhibiting platelet aggregation", "setting": "[2]", "result": "selective"}, {"measurement": "inhibiting platelet aggregation", "setting": "[3]", "result": "not effective"}]}]}
